pIC50: −log10 of the molar value. Values joined by “and” are separate entries in the source; they are usually repeats but may differ in a detail not shown here. Equal entries are not always repeated. Where two headings read alike, the source gives them in different places.
Experiments:
[1] = target: T1, FGF14:Nav1.6 C-tail complex (Homo sapiens, UniProt Q92915+Q9UQD0); assay: Split-luciferase complementation assay (LCA) in Clone V double stable HEK293 cells; assay type: cell-based; conditions: for Z-score (LCA primary screening): 30 µM, average of primary screening (n = 2), vs on-plate 0.3% DMSO; for Split Luciferase Assay Z-score Set 1 / Split Luciferase Assay Z-score Set 2: normalized to on-plate 0.3% DMSO controls; for IMin (% Luminescence): antagonists, normalized to DMSO
T1 construct: polymerase chain reaction (PCR) amplification of the FGF14 open reading frame (nt 1–855); C-terminal fragment of Nav1.6 (amino acids 1763–1976) fused with CD4ΔC-tail (amino acids 1–395); expressed in transfected cells
T1 sequence (Q92915 1-252 isoform Q92915-2): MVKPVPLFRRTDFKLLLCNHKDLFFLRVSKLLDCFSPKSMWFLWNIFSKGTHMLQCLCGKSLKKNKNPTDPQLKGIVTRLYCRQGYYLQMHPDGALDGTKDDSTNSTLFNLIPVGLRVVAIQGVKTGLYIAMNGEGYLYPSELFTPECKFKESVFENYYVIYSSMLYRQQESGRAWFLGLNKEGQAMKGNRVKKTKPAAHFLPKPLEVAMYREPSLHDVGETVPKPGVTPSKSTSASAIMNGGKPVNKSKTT
T1 sequence (Q9UQD0 1763-1976 limits assumed): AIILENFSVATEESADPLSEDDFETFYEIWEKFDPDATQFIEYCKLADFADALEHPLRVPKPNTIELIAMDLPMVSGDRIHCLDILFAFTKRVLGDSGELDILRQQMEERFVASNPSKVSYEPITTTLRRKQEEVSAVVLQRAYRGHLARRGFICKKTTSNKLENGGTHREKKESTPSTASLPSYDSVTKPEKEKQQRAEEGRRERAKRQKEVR

[2] = target: full-length P. pyralis luciferase (Photinus pyralis, UniProt P08659, K549A/L550V/N119G/N50D/S548I); assay type: cell-based; conditions: CC_NCI screening, normalized to on-plate 0.3% DMSO controls; for Luciferase Assay % Lum: full-length luciferase counter-screen luminescence; for Luciferase Assay Z-score: full-length luciferase counter-screen
Sequence of full-length P. pyralis luciferase (P08659 whole entry N50D/N119G/S548I/K549A/L550V, looked up): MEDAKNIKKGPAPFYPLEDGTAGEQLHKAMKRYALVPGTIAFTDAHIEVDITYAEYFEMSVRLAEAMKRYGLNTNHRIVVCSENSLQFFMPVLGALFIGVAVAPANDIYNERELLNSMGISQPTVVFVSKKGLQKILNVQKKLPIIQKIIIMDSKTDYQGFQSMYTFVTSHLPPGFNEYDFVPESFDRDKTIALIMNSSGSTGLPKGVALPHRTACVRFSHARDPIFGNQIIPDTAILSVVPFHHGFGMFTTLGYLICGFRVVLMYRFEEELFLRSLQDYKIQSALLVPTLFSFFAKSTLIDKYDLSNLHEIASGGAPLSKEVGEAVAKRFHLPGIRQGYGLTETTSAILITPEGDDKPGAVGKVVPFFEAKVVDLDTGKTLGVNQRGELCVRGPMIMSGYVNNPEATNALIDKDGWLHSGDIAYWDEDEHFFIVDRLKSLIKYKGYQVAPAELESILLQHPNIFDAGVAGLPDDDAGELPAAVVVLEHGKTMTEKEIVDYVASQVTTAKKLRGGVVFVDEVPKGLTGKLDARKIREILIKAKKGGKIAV

Clone V cells = assay: CellTiter Blue (CTB) cell viability counter-screen; conditions: CC_NCI screening, normalized to on-plate 0.3% DMSO controls; for Toxicity Assay % Fluor: CTB cell viability fluorescence; for Toxicity Assay Z-score: CTB cell viability
[3] = CC_NCI screening, LCA luminescence, biological replicate Set 1, normalized to on-plate 0.3% DMSO controls (n=16 per plate)
[4] = CC_NCI screening, LCA luminescence, biological replicate Set 2, normalized to on-plate 0.3% DMSO controls (n=16 per plate)
[5] = CC_NCI screening, LCA, biological replicate Set 1
[6] = CC_NCI screening, LCA, biological replicate Set 2
[7] = CC_NCI screening, average of Set 1 and Set 2, normalized to 0.3% DMSO controls

Row | Compound | Split Luciferase Assay % Lum Set 1 [1, 3] | Split Luciferase Assay %Lum Set 2 [1, 4] | Split Luciferase Assay Z-score Set 1 [1, 5] | Split Luciferase Assay Z-score Set 2 [1, 6] | Split Luciferase Assay %Lum Avg [1, 7] | Luciferase Assay % Lum [2] | Luciferase Assay Z-score [2] | Toxicity Assay % Fluor (Clone V cells) | Toxicity Assay Z-score (Clone V cells) | other results
1 | O=C(NOCC1CC1)c1ccc(F)c(F)c1Nc1ccc(I)cc1Cl [CI 1040, reference compound] | 50.33% | 42.65% | -4.01 | -4.67 | 46.49% | 103.28% | 0.42 | 85.93% | -1.97 | Z-score (LCA primary screening) ([1]; 384-well): −4.34; IMin (% Luminescence) ([1]; Clone V cells, 384-well): 46.49 % Luminescence; pIC50 ([1]; estimated, 8-point dose response 0.25-30 µM, n = 4 per concentration, library compounds, read-out: IC50): 4.83
2 | CO[C@H]1C(=O)[C@]2(C)[C@@H](OC)C[C@H]3OC[C@@]3(OC(C)=O)[C@H]2[C@H](OC(=O)c2ccccc2)[C@]2(O)C[C@H](OC(=O)[C@H](O)[C@@H](NC(=O)OC(C)(C)C)c3ccccc3)C(C)=C1C2(C)C [Cabazitaxel] | 101.43% | 112.35% | 0.12 | 1.01 | 106.89% | 90.38% | -1.23 | 82.13% | -2.50 | –
3 | Nc1nc(Cl)nc2c1ncn2[C@H]1C[C@H](O)[C@@H](CO)O1 [Cladribine] | – | – | – | 3.04 | – | 98.25% | -0.22 | 83.86% | -2.26 | –
4 | CO[C@H]1C[C@@H]2CC[C@@H](C)[C@@](O)(O2)C(=O)C(=O)N2CCCC[C@H]2C(=O)O[C@H]([C@H](C)C[C@@H]2CC[C@@H](OCCO)[C@H](OC)C2)CC(=O)[C@H](C)/C=C(\C)[C@@H](O)[C@@H](OC)C(=O)[C@H](C)C[C@H](C)/C=C/C=C/C=C/1C [Everolimus] | 76.42% | 84.27% | -1.91 | -1.28 | 80.34% | 72.79% | -3.48 | 91.22% | -1.23 | –
5 | C=C1C[C@@H]2[C@H](CC[C@]3(C)C(=O)CC[C@@H]23)[C@@]2(C)C=CC(=O)C=C12 [Exemestane] | – | – | 0.73 | -0.26 | – | 90.38% | -1.23 | 91.81% | -1.14 | Split Luciferase Assay % Lum Set 1 [1]: 109.04%; Split Luciferase Assay %Lum Avg [1]: 102.89%; Split Luciferase Assay %Lum Set 2 [1]: 96.75%
6 | C[C@]12CC[C@@H]3c4ccc(O)cc4C[C@@H](CCCCCCCCC[S+]([O-])CCCC(F)(F)C(F)(F)F)[C@H]3[C@@H]1CC[C@@H]2O (some centres unmarked) [Fulvestrant] | 94.90% | 91.55% | -0.41 | -0.69 | 93.23% | 83.45% | -2.12 | 83.63% | -2.29 | –
7 | Nc1cccc2c1CN(C1CCC(=O)NC1=O)C2=O (centres unmarked) [Lenalidomide] | 144.91% and 107.95% | 144.60% and 129.00% | 3.63 and 0.64 | 3.63 and 2.36 | 144.76% and 118.47% | 104.96% and 92.77% | – | 84.86% and 92.38% | – | –
8 | C[C@]12O[C@H](C[C@]1(O)CO)n1c3ccccc3c3c4c(c5c6ccccc6n2c5c31)CNC4=O [Lestaurtinib, reference compound] | 50.33% | 40.57% | -4.01 | -4.84 | 45.45% | 87.58% | -1.59 | 90.16% | – | Z-score (LCA primary screening) ([1]; 384-well): −4.42; dose-response behavior of repurchased compounds ([1]; 10-point dose response 0.25-50 µM, Clone V cells): purely inhibitory effects; IC50 ([1]; IC50 (µM), estimated, 8-point dose response 0.25-30 µM, n = 4 per concentration, library compounds): 1.22 µM; IMin (% Luminescence) ([1]; Clone V cells, 384-well): 45.45 % Luminescence; action toward the FGF14:Nav1.6 C-tail interaction ([1]; dose-dependency validation using fresh compound samples): acted as antagonists; pIC50 ([1]; in-cell IC50, repurchased compounds, 10-point dose response 0.25-50 µM, n = 8 per concentration, Clone V cells, 384-well): 6.02
9 | Cc1ccc(NC(=O)c2ccc(CN3CCN(C)CC3)cc2)cc1Nc1nc(-c2cccnc2)cs1 [MASITINIB] | 5.76% | 16.64% | -7.62 | -6.78 | 11.20% | 52.92% | -6.03 | 86.99% | -1.82 | –
10 | Cc1nc2c(O)cccc2c(=O)[nH]1 [NU 1025] | – | – | – | – | – | – | – | – | – | Split Luciferase Assay Z-score Set 1 ([1]; CC_NCI screening, biological replicate Set 1): -0.32; Split Luciferase Assay % Lum Set 1 ([1]; CC_NCI screening, biological replicate Set 1, normalized to on-plate 0.3% DMSO controls (n=16 per plate)): 95.99%; Split Luciferase Assay Z-score Set 2 ([1]; CC_NCI screening, biological replicate Set 2): -4.33; Split Luciferase Assay %Lum Set 2 ([1]; CC_NCI screening, biological replicate Set 2, normalized to on-plate 0.3% DMSO controls (n=16 per plate)): 46.81%; Split Luciferase Assay %Lum Avg ([1]; average of Set 1 and Set 2, normalized to 0.3% DMSO controls): 71.40%; Luciferase Assay % Lum (full-length luciferase counter-screen) [2]: 89.72%; Luciferase Assay Z-score (full-length luciferase counter-screen) [2]: -1.32; Toxicity Assay % Fluor (CTB cell viability fluorescence) (Clone V cells): 111.16%; Toxicity Assay Z-score (CTB cell viability) (Clone V cells): 1.56
11 | Cc1ccc(Nc2nccc(N(C)c3ccc4c(C)n(C)nc4c3)n2)cc1S(N)(=O)=O [PAZOPANIB] | 100.34% | 122.76% | 0.03 | 1.85 | 111.55% | 97.40% | -0.33 | 86.91% | -1.83 | –
12 | CCCCCCCCCCCCCCCCCCOP(=O)([O-])OC1CC[N+](C)(C)CC1 [PERIFOSINE] | 86.21% | 89.47% | -1.11 | -0.86 | 87.84% | 103.68% | 0.47 | 83.07% | -2.37 | –
13 | CCCS(=O)(=O)Nc1ccc(F)c(C(=O)c2c[nH]c3ncc(-c4ccc(Cl)cc4)cc23)c1F [PLX4032] | 51.42% | 47.85% | -3.93 | -4.24 | 49.64% | 83.18% | -2.15 | 81.90% | -2.53 | –
14 | Nc1nc2[nH]cc(CCc3ccc(C(=O)N[C@@H](CCC(=O)O)C(=O)O)cc3)c2c(=O)[nH]1 [Pemetrexed] | 112.30% | 110.27% | 0.99 | 0.84 | 111.29% | 94.26% | -0.73 | 94.67% | -0.74 | –
15 | C#CCC(Cc1cnc2nc(N)nc(N)c2n1)c1ccc(C(=O)N[C@@H](CCC(=O)O)C(=O)O)cc1 (some centres unmarked) [Pralatrexate] | 117.73% | 106.11% | 1.43 | 0.50 | 111.92% | 103.37% | 0.43 | 96.60% | -0.47 | –
16 | CO[C@H]1C[C@@H]2CC[C@@H](C)[C@@](O)(O2)C(=O)C(=O)N2CCCC[C@H]2C(=O)O[C@H]([C@H](C)C[C@@H]2CC[C@@H](O)[C@H](OC)C2)CC(=O)[C@H](C)/C=C(\C)[C@@H](O)[C@@H](OC)C(=O)[C@H](C)C[C@H](C)/C=C/C=C/C=C/1C [RAPAMYCIN] | 95.99% | 74.90% | -0.32 | -2.04 | 85.45% | 77.09% | -2.93 | 110.83% | 1.51 | –

Source: article PMC6858373 (Scientific Reports, 2019)
